The text below walks through data of patent publication EP4212151B1, “STILBENE, FLAVONOL OR CURCUMIN COMPOUNDS FOR USE IN THE TREATMENT OF AGE-RELATED MACULAR DEGENERATION (AMD; ARMD)” (Knepper, Paul A., priority 2022, dated 2023).

pIC50: −log10 of the molar value. Several values for one entry are separate records, joined by “and”; a condition that tells them apart may be missing. Equal values may be shown once. Read-outs that look alike come from different tables or passages of the source. Where only a bound is given, the exact number is not on record here.

The test system of data set [1] is superactivated platelets (SAPs). Kind of data set: In-vitro flow cytometry platelet assay: superactivated platelets (SAP% of all platelets) after thrombin and convulxin; combination index by CompuSyn. To be noted: Homo sapiens; for pIC50: individually (single agent), read-out: IC50 for the reduction of SAPs; for inhibition at 1 µM: single agent 1 µM; for inhibition at 1 µM / inhibition at 5 µM / inhibition at 10 µM / inhibition at 0.01 µM / inhibition at 0.1 µM: read-out: % change; for inhibition at 5 µM: single agent 5 µM; for inhibition at 10 µM: single agent 10 µM; for inhibition at 0.01 µM: single agent 0.01 µM; for inhibition at 0.1 µM: single agent 0.1 µM. The format is cell-based. An excerpt: Briefly, platelet-rich plasma (PRP) from patients with age-related macular degeneration (n = 9) are isolated from whole blood and challenged using dual agonists thrombin and convulxin (collagen substitute) to stimulate superactivated platelets (SAPs). SAPs are defined as positive for surface fibrinogen and negative for activated integrin αIIbβ3, whereas activated platelets are defined as negative for surface fibrinogen and positive for activated integrin αIIbβ3. Surface fibrinogen is detected by pre-treating platelets with biotinylated-fibrinogen (5 µg/mL) followed by staining with any common fluorophore conjugated to streptavidin. The streptavidin-fluorophore complex binds to the biotin-fibrinogen complex present on SAPs but not activated platelets due to the differing composition of charged surface proteins. Activated integrin αIIbβ3 - characteristic of activated platelets - is detected using the PAC-1 antibody conjugated to any compatible fluorophore. […] The effect of RQC on SAPs is determined by pre-treating diluted PRP samples with combinations of R, Q, and/or C for 5 minutes at 37°C followed by challenge with thrombin and convulxin for 5 minutes at 37°C. The samples are then stained with the fluorophore-conjugates and fixed in 3% formalin before analysis using a flow cytometer. SAP percentage is calculated as a percentage of all platelets. The effect size of RQC is determined by the change ion SAP percentage before and after treatment with RQC and is used as input to calculate drug synergy using the CompuSyn software developed by Chou, et al. Drug synergy, additivism, and antagonism are defined as a combination index (CI) score less than, equal to, or greater than 1, respectively. The level of drug synergy can be further stratified by quantile, tertile, or quartile in cases where numerous synergistic doses are compared.
The average combination index values of low, medium, and high doses of RQC for the inhibition of SAPs in AMD subjects was determined. The Combination Index (CI) theorem derived by Chou-Talalay [Chou, 2010] was calculated for each combination drug treatment of R, Q, and C. The CI is useful in quantifying levels of synergism and antagonism. The theorem is based on the median-effect equation to provide a common link between a single entity and multiple entities. A CI value < 1 indicates synergism, a CI equal to 1 indicates additivity, and a CI > 1 indicates antagonism. RQC was very effective in low, medium, and high doses.
R, Q, and C at three different dose levels each were tested in all possible combinations, resulting in 27 possible double and 27 possible triple combinations within each subject. The doses tested were R (1, 5, and 10 µM), Q (1, 5, and 10 µM), and C (0.01, 0.1, and 1 µM) and the effect was based on the inhibition of SAPs. To obtain the mean number of synergistic doses in each cohort, the average CI score for each dose combination was calculated within each cohort, producing a set of 27 double combination CI scores and 27 triple combination CI scores per cohort. Out of each set of 27 dose combinations, the number of CI scores under 0.8 (highly synergistic) was counted and reported here. For example, in control subjects 5 out of 27 possible double combinations were synergistic while 25 out of 27 possible triple combinations were synergistic based on the mean CI for each dose in the cohort.

The conditions of data set [2]: cited from earlier work; for Half-life: human, in vivo; for Bioavailability: oral.
For data set [3] the following is noted: cited from earlier work; for dose found well tolerated, low or no toxicity: clinical trials, doses as high as; for maximum dose (highest dose evaluated in a repeated-dose clinical trial and found safe and tolerable): human, in vivo.
Data set [4] deals with Dry AMD Subjects. Kind of data set: Drusen volume by OCT (manual segmentation, ImageJ) in dry AMD subjects, oral treatment for 18 months. It counts as in vivo, human. Conditions: oral C 2660 mg/day or RQC 200/240/2660 mg/day; for Drusen Volume % Change: 18 months vs baseline; for Drusen Volume, 18 Months: after 18 months. The text has this: As stated hereinabove, dry AMD is a common disease characterized by retinal pathology. A typical finding of dry AMD is the presence of drusen and/or geographic atrophy. TABLE 1 below depicts drusen volume at baseline and after 18 months according to drusen size in all participants (C or RQC). […] To compare the changes in drusen volume found in this study in subjects taking oral curcumin against what would be expected over the natural course of the disease, optical coherence tomography (OCT) scans were evaluated. OCT is a new retinal imaging technology which is useful to analyze drusen volume and geographic atrophy. Each subject was scanned 6 months before treatment. This allowed for the examination of the natural history of a subject's drusen progression compared to progression with treatment. Standard deviation (SD) is expressed in mm^3. Statistical significance was determined by Wilcoxon Rank Sum test. Drusen volume was measured by manual segmentation using ImageJ software. Drusen size was determined by the widest width of the drusen and expressed in µm. […]

Data set [5] deals with Dry AMD Subjects. Kind of data set: Geographic atrophy area and growth rate in dry AMD subjects, Phase 1 study, 12 months. It counts as in vivo, human. Here is the method: The effect of RQC and curcumin on geographic atrophy growth was evaluated in a Phase 1 study (TABLE 5, below) TABLE 5.
The expected untreated GA growth rate reported in the literature is 1.20 mm^2/year (or 0.18 mm/year adjusted for baseline lesion area). […] The decrease in GA growth rate was highly significant (p = 0.0004) compared with untreated samples [Yehoshua, et al., 2011] and remained highly significant when adjusted for differences in baseline lesion area (p = 0.0001). […]

Where [6] appears, read: drusen ≥ 250 µm, listed as curcumin.

By pIC50 is commonly meant the IC50 on a negative log10 scale, so that one unit is a factor of ten. With `Oc1ccc(/C=C/c2cc(O)cc(O)c2)cc1` [Resveratrol, 5-[(1E)2-(4-hydroxyphenyl)ethenyl]-1,3-benzenediol], the pIC50 in data set [1] is 4.44. In data set [1] (AMD (GA) subject), the inhibition at 1 µM was determined as 8.6%, the inhibition at 5 µM was 17.1% and the inhibition at 10 µM came to 18.6%. For the same compound, in data set [1] (control subject), the inhibition at 1 µM amounted to 19.6%, the inhibition at 5 µM amounted to 24.6% and the inhibition at 10 µM came to 30.5%. Also, in data set [2], the “Half-life” value was 2 to 5 h and the Bioavailability is recorded as 0.1-0.4%. Also, in data set [3], the “dose found well tolerated, low or no toxicity” value is reported as at most 5 g per day; the “maximum dose (highest dose evaluated in a repeated-dose clinical trial and found safe and tolerable)” value (“maximum dose” below) was 5000 mg/day.
For `COc1cc(/C=C/C(=O)CC(=O)/C=C/c2ccc(O)c(OC)c2)ccc1O` [Curcumin, (1E,6E)-1,7-bis(4-Hydroxy-3-methoxyphenyl)-1,6-heptadiene-3,5-dione], the “Drusen Volume % Change” value in data set [4] (All drusen) is -13.0%; in data set [4] (drusen 63-124 µm), 0.0%; in data set [4] (drusen 125-249 µm), -1.6%; in data set [4] (drusen ≥ 250 µm), -20.0%; in data set [4] (setting [6]), -30.0% and -20.0%. Besides, the “Drusen Volume, 18 Months” value in data set [4] (All drusen) is recorded as 8.70 mm^3; in data set [4] (All drusen, listed as curcumin), 8.7 (± 1.6) mm^3; in data set [4] (drusen 63-124 µm), 0.08 mm^3; in data set [4] (drusen 125-249 µm) it was 3.70 mm^3; in data set [4] (drusen ≥ 250 µm), 6.00 mm^3; in data set [4] (setting [6]) it was 6.00 (± 1.30) mm^3. Also, the “Drusen Volume, Baseline” value in data set [4] (All drusen) is 10.1 mm^3; in data set [4] (All drusen, listed as curcumin), 10.1 (± 1.60) mm^3; in data set [4] (drusen 63-124 µm), 0.08 mm^3; in data set [4] (drusen 125-249 µm) it was 3.80 mm^3; in data set [4] (drusen ≥ 250 µm) it was 7.50 mm^3; in data set [4] (setting [6]), 0.75 (± 1.30) mm^3. In addition, the pIC50 in data set [1] was 5.44. Besides, the values for the inhibition at 0.01 µM in data set [1] (AMD (GA) subject) and in data set [1] (control subject) were 11.5% and 24.1%, respectively. For the same compound, the inhibition at 0.1 µM is 18.4% in data set [1] (AMD (GA) subject) and 36.8% in data set [1] (control subject). Further, the inhibition at 1 µM was found to be 37% in data set [1] (AMD (GA) subject) and 33.7% in data set [1] (control subject). Besides, the “Half-life” value in data set [2] is 5 to 6 h. Also, the Bioavailability in data set [2] was 0.01-0.1%. The Cmax in data set [2] (read-out: maximum plasma concentration, two capsules (1000 mg each)) is 600 to 1000 nM. The “Growth Rate (mm^2/y)” value in data set [5] (GA, mean of arm, 12 months of treatment) was 0.68 ± 0.79 mm^2/y; in data set [5] (GA, mean of arm, 12 months of treatment, listed as curcumin), 0.68 mm^2/y; in data set [5] (geographic atrophy, individual eyes, 12 months, listed as C) it was 1.462 mm^2/y and 1.258 mm^2/y and -0.037 mm^2/y and 0.037 mm^2/y; in data set [5] (nascent GA (nGA), mean of arm, 12 months of treatment) it was 0.00 ± 0.05 mm^2/y; in data set [5] (nascent GA (nGA), mean of arm, 12 months of treatment, listed as curcumin), 0.005 mm^2/y. Also, the “Baseline Area (mm^2)” value was determined as 1.08 ± 1.10 mm^2 in data set [5] (GA, mean of arm, baseline) and 0.14 ± 0.01 mm^2 in data set [5] (nascent GA (nGA), mean of arm, baseline). For the same compound, the “Growth Rate (mm/y)” value in data set [5] (GA, mean of arm, square root transformed (adjusted for baseline lesion area), 12 months) is 0.21 ± 0.25 mm/y; in data set [5] (GA, mean of arm, square root transformed (adjusted for baseline lesion area), 12 months, listed as curcumin) it was 0.21 mm/y; in data set [5] (geographic atrophy, individual eyes, square root transformed, 12 months, listed as C), 0.373 mm/y and 0.465 mm/y and -0.046 mm/y and 0.055 mm/y; in data set [5] (nascent GA (nGA), mean of arm, square root transformed (adjusted), 12 months), 0.01 ± 0.07 mm/y; in data set [5] (nascent GA (nGA), mean of arm, square root transformed (adjusted), 12 months, listed as curcumin), 0.01 mm/y. For the same compound, the “Area (mm^2), Baseline” value in data set [5] (geographic atrophy, individual eyes (subject c0, eye c2, GA category c7), baseline, listed as C) is 1.794 mm^2 and 2.254 mm^2 and 0.147 mm^2 and 0.134 mm^2. The “Area (mm^2), 12 mo” value in data set [5] (geographic atrophy, individual eyes, after 12 months of treatment, listed as C) was 3.256 mm^2 and 3.512 mm^2 and 0.110 mm^2 and 0.171 mm^2. Besides, the “maximum dose” value in data set [3] was 12000 mg/day. For the same compound, in data set [3] (review of clinical trials, doses up to, only minimal, mostly gastrointestinal side effects), the “dose safe and well tolerated” value is 8 to 12 g/day.
On to `O=c1c(O)c(-c2ccc(O)c(O)c2)oc2cc(O)cc(O)c12` [Quercetin, 2-(3,4-dihydroxyphenyl)-3,5,7-trihydroxychromen-4-one;dihydrate], for which the pIC50 in data set [1] is 4.51. Also, in data set [1] (AMD (GA) subject), the inhibition at 1 µM was 6.7%, the inhibition at 5 µM was 43.9% and the inhibition at 10 µM amounted to 27.3%. In data set [1] (control subject), the inhibition at 1 µM is 36.9%, the inhibition at 5 µM is 38.2% and the inhibition at 10 µM turned out to be 24.7%. In data set [3], the “dose found well tolerated, low or no toxicity” value is given as at most 5 g per day; the “maximum dose” value is listed as 5000 mg/day.
